{"source": "ChEMBL document CHEMBL2321861", "about": "“Multifunctional radical quenchers for the treatment of mitochondrial dysfunction” (ACS Med Chem Lett, 2013)", "key": {"[1]": {"experiment": "Antioxidant activity assessed as suppression of lipid peroxidation at 5 uM relative to control", "format": "functional"}, "[2]": {"experiment": "Antioxidant activity assessed as suppression of lipid peroxidation at 1 uM relative to control", "format": "functional"}, "[3]": {"experiment": "Inhibition of NADH oxidase (unknown origin) at 1 uM relative to control", "settings": "Homo sapiens"}, "[4]": {"experiment": "Inhibition of NADH oxidase (unknown origin) at 5 uM relative to control", "settings": "Homo sapiens"}}, "data": [{"smiles": "CCCCCCCCCCc1c(C)n(O)c(C)c(Cl)c1=O", "values": [{"measurement": "Activity", "setting": "[1]", "value": 0, "unit": "%"}, {"measurement": "Activity", "setting": "[2]", "value": 0, "unit": "%"}]}, {"smiles": "CCCCCCCc1c(C)n(O)c(C)cc1=O", "values": [{"measurement": "Activity", "setting": "[1]", "value": 0, "unit": "%"}, {"measurement": "Activity", "setting": "[2]", "value": 0, "unit": "%"}]}, {"smiles": "CCCCCCCCCCCCCCCCc1c(C)n(O)c(C)c(Br)c1=O", "values": [{"measurement": "Activity", "setting": "[1]", "value": 15, "unit": "%"}, {"measurement": "Activity", "setting": "[2]", "value": 7, "unit": "%"}]}, {"smiles": "CCCCCCCCCCc1c(C)n(O)c(C)c(Br)c1=O", "values": [{"measurement": "Activity", "setting": "[1]", "value": 0, "unit": "%"}, {"measurement": "Activity", "setting": "[2]", "value": 0, "unit": "%"}]}, {"smiles": "CCCCCCCCCCc1c(C)n(O)c(C)cc1=O", "values": [{"measurement": "Activity", "setting": "[1]", "value": 0, "unit": "%"}, {"measurement": "Activity", "setting": "[2]", "value": 0, "unit": "%"}]}, {"smiles": "CCCCCCCc1c(C)n(O)c(C)c(C(C)=O)c1=O", "values": [{"measurement": "Activity", "setting": "[1]", "value": 2.2, "unit": "%"}, {"measurement": "Activity", "setting": "[2]", "value": 11, "unit": "%"}, {"measurement": "inhibition", "setting": "[3]", "value": 74.5, "unit": "%"}, {"measurement": "inhibition", "setting": "[4]", "value": 44.5, "unit": "%"}]}, {"smiles": "CCCCCCCCCCCCCCCCc1c(C)n(O)c(C)cc1=O", "values": [{"measurement": "Activity", "setting": "[1]", "value": 20, "unit": "%"}, {"measurement": "Activity", "setting": "[2]", "value": 10, "unit": "%"}]}, {"smiles": "C=Cc1c(C)n(O)c(C)c(CCCCCCCCCCCCCCCC)c1=O", "values": [{"measurement": "Activity", "setting": "[1]", "value": 13, "unit": "%"}, {"measurement": "Activity", "setting": "[2]", "value": 7, "unit": "%"}, {"measurement": "inhibition", "setting": "[3]", "value": 20.1, "unit": "%"}, {"measurement": "inhibition", "setting": "[4]", "value": 12, "unit": "%"}]}, {"smiles": "CCCCCCCc1c(C)n(O)c(C)c(N)c1=O", "values": [{"measurement": "Activity", "setting": "[1]", "value": 9.6, "unit": "%"}, {"measurement": "Activity", "setting": "[2]", "value": 14, "unit": "%"}, {"measurement": "inhibition", "setting": "[3]", "value": 92.9, "unit": "%"}, {"measurement": "inhibition", "setting": "[4]", "value": 76.7, "unit": "%"}]}, {"smiles": "CCCCCCCc1c(C)n(O)c(C)c(Cl)c1=O", "values": [{"measurement": "Activity", "setting": "[1]", "value": 0, "unit": "%"}, {"measurement": "Activity", "setting": "[2]", "value": 0, "unit": "%"}]}, {"smiles": "CCCCCCCCCCCCCCCCc1c(C)n(O)c(C)c(N)c1=O", "values": [{"measurement": "Activity", "setting": "[1]", "value": 94, "unit": "%"}, {"measurement": "Activity", "setting": "[2]", "value": 18, "unit": "%"}, {"measurement": "inhibition", "setting": "[3]", "value": 17.1, "unit": "%"}, {"measurement": "inhibition", "setting": "[4]", "value": 12.7, "unit": "%"}]}, {"smiles": "C=Cc1c(C)n(O)c(C)c(CCCCCCC)c1=O", "values": [{"measurement": "Activity", "setting": "[1]", "value": 0, "unit": "%"}, {"measurement": "Activity", "setting": "[2]", "value": 0, "unit": "%"}, {"measurement": "inhibition", "setting": "[3]", "value": 29.7, "unit": "%"}, {"measurement": "inhibition", "setting": "[4]", "value": 20.7, "unit": "%"}]}, {"smiles": "CCCCCCCc1c(C)n(O)c(C)c(Br)c1=O", "values": [{"measurement": "Activity", "setting": "[1]", "value": 0, "unit": "%"}, {"measurement": "Activity", "setting": "[2]", "value": 0, "unit": "%"}]}]}
